Results: patent US7663000B2, “Quinoneimines of malonic acid diamides” (A-Viral ASA, priority 2003, dated 2010)

Experiment: Stability in aqueous solution, analysed by 1H NMR
Type: physicochemical
Excerpt: The product of Example 2 (PHBPQ, N-phenyl-2-hydroxy-2 butyl 1,3-propanal quinoneimine) was examined for stability in aqueous solution, followed by analysis by ^1H NMR spectroscopy.

stability compared with 4-OH-OPB (pH 7.4): more stable at pH 7.4 than 4-OH-OPB
re-conversion into 4-OH-OPB (when the solution was acidified): not re-converted into 4-OH-OPB
Substance: N-phenyl-2-hydroxy-2 butyl 1,3-propanal quinoneimine [PHBPQ]
